From US8551997B2, “Structural-based inhibitors of the glutathione binding site in aldose reductase, methods of screening therefor and methods of use” (The Board of Regents of the University of Texas System, priority 2004, dated 2013)

Assays:
[1] = system: Caco-2 cells; assay: Western blot of phospho-PKC-b2 in Caco-2 cells; format: cell-based, human; conditions: BFGF or PDGF
Description: (§1) To examine expression of any of Cox-1, Cox-2, phospho-PKC-2, GAPDH, E2F1, Cyclin D1, Cyclin E, and iNOS proteins, Western blot analyses were carried by known methods (15). Equal amounts of protein from cell extracts were subjected to 12% SDS-PAGE followed by transfer of proteins to nitrocellulose filters, probing with the indicated antibodies, and the antigen-antibody complex was detected by enhanced chemiluminescence (Pierce, Piscataway, N.J., USA).

[2] = system: Caco-2 cells; assay: NF-kB-dependent reporter SEAP expression assay; format: cell-based, human
Description: Caco-2 cells (1.5×10^5 cells/well) were plated in six-well plates and after attachment overnight, were serum-starved in optiMEM medium for 24 h with or without aldose reductase inhibitor, sorbinil (20 μM) and were transiently transfected with pNF-kB-SEAP construct or control plasmid pTALSEAP DNA (Clontech, USA) using the lipofectamine plus reagent. After 6 h of transfection, cells were treated either with 10 ng/ml BFGF or PDGF for 48 h in DMEM medium containing 0.1% FBS. The cell culture medium was then harvested and analyzed for SEAP activity, essentially as described by the manufacturer (Clontech Laboratories, Palo Alto, Calif.), using a 96-well chemiluminescence plate reader and Kodak Image Station 2000R.

[3] = system: A549 cells; assay: Western blot of cell cycle regulatory proteins in A549 cells; format: cell-based, human; conditions: various concentrations
Description: as §1

[4] = system: RAW264.7 macrophages; assay: LPS- and lipid aldehyde-induced signaling in RAW264.7 macrophages; format: cell-based; parameters: HNE and protein-HNE adduct levels: dose or concentration left out as unconfirmed
Description: At the indicated times, cells were harvested for measurement of HNE (FIG. 5A), protein-HNE adducts (FIG. 5B), NF-kB (FIG. 5C), and TNF-a and IL-6 (FIG. 5D) as described in the methods. Cells were growth arrested as described above or transfected with control or AR siRNA oligonucleotides, incubated with GS-HNE-ester, or GS-DHN-ester (1 mM), and harvested for determination of NF-kB (FIG. 5E), membrane-bound total PKC (FIG. 5F).
To determine if GS-DHN serves as a cellular sensor of ROS-induced insults, its effects on phosphorylation events upstream of IKK/NF-κB activation in RAW264.7 macrophages was examined.

[5] = system: Caco-2 cells; assay: NF-kB p65 transcription factor (DNA binding) assay; format: cell-based, human
Description: The cytosolic as well as nuclear extracts were prepared as described earlier (15) and the NF-kB activity was determined by using the colorimetric non-radioactive NF-kB p65 Transcription Factor Assay kit (Chemicon Intl.) as per the supplier's instructions. Briefly, a double stranded biotinylated oligonucleotide containing the consensus sequence for NF-kB binding (5′-[…]-3′; SEQ ID NO: 3) was mixed with nuclear extract and assay buffer. After incubation, the mixture (probe+extract+buffer) was transferred to the streptavidin-coated ELISA kit and read at 450 nm using an ELISA plate reader. For each experiment, triplicate samples were measured for statistical significance.

[6] = system: A549 cells; assay: Western blot of Cox-2 and iNOS in A549 cells; format: cell-based, human; conditions: concentration dependent
Description: as §1

[7] = system: Caco-2 cells; assay: Reactive oxygen species in Caco-2 cells (DCFH-DA); format: cell-based, human; conditions: 20 μM, FGF or PDGF 10 ng/ml 60 min
Description: Caco-2 cells were plated in a 24-well plate at a density of 1.5×10^4 cells/well in DMEM and then serum-starved at 60-70% confluence in the absence and presence of 20 μM sorbinil or tolrestat for overnight in phenol red-free DMEM supplemented with 0.1% FBS. Cells were then pre-incubated for 30 min with the ROS-sensitive fluorophore 2′,7′-dichlorofluorescein diacetate (DCFH-DA), which is taken up and oxidized to the fluorescent dichlorofluorescein by intracellular ROS. After incubation with DCFH-DA, the cells were exposed to FGF or PDGF 10 ng/ml for 60 min and fluorescence was measured with a CytoFluorII fluorescence plate reader (PerSeptive Biosystems, Inc., Framingham, Mass.) at excitation of 485 nm and emission of 528 nm.

[8] = system: rat VSMC cells; assay: High glucose-induced TNF-a production in VSMC; format: cell-based
Description: Growth-arrested VSMC in 5.5 mM glucose (NG) were preincubated for 1 h without or with apocyanin (25 mM), D609 (100 mM), calphostin C (0.2 mM), N-acetyl cysteine (10 mM) and NF-kB inhibitor (18 mM) (FIG. 4A) and without or with sorbinil or tolrestat (10 mM each) (FIG. 4B) followed by the addition of glucose (19.5 mM) and incubation for the indicated times. AR antisense ablated VSMC were incubated with HG for the indicated times (FIG. 4C).
Growth-arrested VSMC in 5.5 mM glucose (NG) were preincubated for 1 h without or with apocyanin (25 mM), D609 (100 mM), calphostin C (0.2 mM), N-acetyl cysteine (10 mM) and NF-kB inhibitor (18 mM) respectively, followed by the addition of 19.5 mM glucose, after which the cells were incubated for 12 and 24 hrs.

[9] = system: HT29 cells; assay: PGE2 assay in HT29 cells; format: cell-based; conditions: inhibitor alone
Description: Caco-2 cells were plated in 6 well plates at a density of 2×10^5 cells/well. After 24 hours, the medium was replaced with fresh medium containing 0.1% serum with or without, sorbinil (20 μM) followed by treatment with either 10 ng/ml BFGF or PDGF, for another 24 h. HT29 cells were plated in 6 well plate at a density of 2×10^5 cells/well. After 24 hours, medium was replaced with serum-free medium with or without, sorbinil or zopolrestat (20 μM) followed by treatment with either EGF (5 ng/ml) or BFGF (10 ng/ml) for another 24 h. The medium from each cell lines was collected from each well and analyzed for PGE2 by using an Enzyme Immuno Assay kit according to the manufacturer's instructions (Cayman Chemical Co., Inc.).
Briefly, 50 μl of diluted standard/sample were pipetted into a pre-coated goat polyclonal anti-mouse IgG 96-well plate. Aliquots (50 μl) of a PGE2 monoclonal antibody and PGE2 acetylcholine esterase (AchE) conjugate, (PGE2 tracer) were added to each well and allowed to incubate at 4° C. for 24 h. After incubation, the wells were washed five times with wash buffer containing 0.05% Tween-20, followed by the addition of 200 μl of Ellman's reagent containing acetylthiocholine and 5,5′-dithio-bis-(2-nitrobenzoic acid). Samples were read after 60 min at 412 nm with an ELISA reader. […]

[10] = system: isolated mouse hearts; assay: Isolated mouse hearts (Langendorff preparation) challenged with LPS; conditions: perfusion with sorbinil in the presence of LPS

Substance: (S)-6-fluorospiro[chroman-4,4′-imidazolidine]-2,5′-dione [sorbinil]
- attenuation of increase in PKC-β2 phosphorylation [1]: > 70%
- inhibition of BFGF and PDGF-induced NF-κB-dependent reporter (SEAP) activation ([2]; sorbinil 20 μM): > 60%
- NF-κB-SEAP activity ([2]; sorbinil alone): did not affect
- E2F-1, Cyclin E and Cyclin D1 expression [3]: significant inhibition
- HNE and protein-HNE adduct levels [4]: increased
- ability of GS-DHN to activate NF-κB [4]: had no effect
- effects of HNE/GS-HNE on IKK-a/b phosphorylation and NF-kB translocation [4]: significantly blunted
- LPS-induced NF-κB and cytokine activation ([4]; LPS 1 mg/ml, sorbinil 10 mM): significantly decreased
- inhibition of BFGF or PDGF-induced NF-kB DNA binding activity [5]: > 70%
- Cox-2 and iNOS expression [6]: inhibit
- growth factor-induced increase in ROS [7]: inhibited
- basal levels of TNF-a ([8]; media containing 5.5 mM glucose, mannitol, or 3-OMG): did not affect
- high glucose-induced TNF-a secretion ([8]; preincubated 1 h, then 19.5 mM glucose, apocyanin 25 mM, calphostin C 0.2 mM, N-acetyl cysteine 10 mM, sorbinil or tolrestat 10 mM each, or AR antisense ablated): prevents
- constitutive levels of PGE2 [9]: did not inhibit
- time to maximal ±dP/dt, coronary perfusion pressure, coronary vascular resistance, heart rate [10]: unaffected
- left ventricular pressure (LVP), +dP/dtmax and −dP/dtmax ([10]; compared to vehicle): significantly increased
